From patent publication US20080064053A1, “Genotoxicity Testing” (priority 2003, published 2008)
Like-named read-outs stand apart in the source and are kept apart here.

Tests used:
[1] = test system: RAD54 promoter-GFP reporter (pGen001); settings: for GSA genotoxicity result: GenT01 yeast, overnight at 25° C., 2% DMSO diluent, no S9
[2] = test system: RNR3 regulatory element-GFP reporter; assay: RNR3-GFP reporter microplate assay (pGenRNR3); format: cell-based, Saccharomyces cerevisiae; settings: yeast test strain transformed with pGenRNR3
Text: In addition to the RAD54 vectors described in the previous Examples, the inventors constructed an FF18984 reporter strain containing a replicative plasmid harbouring an RNR regulatory element. The vectors pGenRNR2 or pGenRNR3 are shown in FIGS. 24 and 25, respectively, and contain the upstream non-coding DNA sequence of the RNR2 gene or RNR3 gene fused to the yeast-enhanced Aequorea victoria GFP gene. A control FF18984 strain containing an identical plasmid except that 2 base pairs have been removed at the start of the GFP gene, such that no GFP is made, was also examined.
In order to test the brightness of the reporter for RNR3 constructs, similar methodology was used as for RAD54 constructs, as described in the previous Examples, but using instead pGENRNR3.

[3] = test system: yeast strain GenT01 (FF18984); assay: GreenScreen assay (GSA), cytotoxicity: final cell density by absorbance; settings: for Maximum Concentration (% v/v), suggested maximum tolerable solvent concentration: solvent in GSA test samples, toxic at higher concentrations
Experimental: The following standard protocol was followed. A 1 mM stock of the test chemical was prepared in 2% v/v aqueous DMSO, and used to make 2 identical dilution series across the microplate and a ‘control’ (see below). To achieve this, 150 microlitres of the test chemical solution were put into 2 microplate wells. Each sample was serially diluted by transferring 75 microlitres into 75 microlitres of 2% DMSO, mixing, and then taking 75 microlitres out and into the next well. This produced 9 serial dilutions of 75 microlitres each.
75 microlitres of the yeast suspension were added to each well of the diluted chemical: GenT01 to one series and GenC01 to the second, and to appropriate standards and controls. After the plates were filled, they were sealed using either a gas permeable membrane (Breath-easy, Diversified Biotech, USA) or a plastic lid, and then incubated without shaking, overnight at 25° C.
Following overnight incubation, fluorescence and absorbance data were collected from the microplates. […] Absorbance was measured through a 620 nm filter in both instruments. […] Fluorescence data were divided by absorbance data to give ‘brightness units’, the measure of average GFP induction per cell. […] In this way, one can distinguish between a small number of highly fluorescent cells and a large number of weakly fluorescent cells. In order to correct for induced cellular autofluorescence and intrinsic compound fluorescence, the brightness values for the GenC01 strain were subtracted from those of GenT01. This makes visual assessment of the data more reliable.
The cytotoxicity threshold is set at 80% of the cell density reached by the untreated control cells.
Table 12 lists chemicals/solvents that are often used with test samples, to promote dissolution etc. […] If these chemicals are used to dissolve compound stock solutions, they should also be included in the diluent used to make the compound dilution series. […] Interference of DMSO, a free radical scavenger, in the recombinogenic properties of several oxidising agents has previously been reported.

[4] = test system: bacteria; settings: cited from earlier work
[5] = in vivo; cited from earlier work
[6] = test system: SOS umuC; settings: cited from earlier work
[7] = test system: SOS lux; settings: S9 −; cited from earlier work
[8] = other genotoxicity tests and cancer studies; cited from earlier work
[9] = requires S9 metabolic activation

CNNC [1,2-dimethylhydrazine]
GSA genotoxicity result [1]: induced | fluorescence induction by the reporter [2]: increases with increasing concentration

CC(O)CCl (stereo not shown) [1-Chloro-2-propanol]
Maximum Concentration (% v/v), suggested maximum tolerable solvent concentration [3]: 2 % v/v

CC(=O)Nc1ccc2c(c1)Cc1ccccc1-2 [2-acetamidofluorene]
GSA genotoxicity result [1]: negative

Nc1cc([N+](=O)[O-])ccc1O [2-amino-4-nitrophenol]
GSA genotoxicity result [1]: positive | Ames test result [4, 9]: positive

Nc1ccc2cc3ccccc3cc2c1 [2-aminoanthracene]
GSA genotoxicity result [1]: negative

Nc1nc[nH]n1 [3-amino-1,2,4-triazole]
GSA genotoxicity result [1]: positive | cancer data / carcinogenicity [5]: positive

Nc1ccc(Oc2ccc(N)cc2)cc1 [4,4-oxydianiline]
GSA genotoxicity result [1]: negative

Nc1c2ccccc2nc2ccccc12 [9-aminoacridine]
GSA genotoxicity result [1]: negative

c1ccc2c(c1)cc1ccc3cccc4ccc2c1c34 [BENZO[A]PYRENE, benzo[a]pyrene]
GSA genotoxicity result [1]: positive

O=Cc1ccccc1 [Benzaldehyde]
GSA cytotoxicity result ([3]; GenT01 yeast, overnight at 25° C.): cytotoxic

N.N.[Cl][Pt][Cl] [CISPLATIN, cisplatin]
GSA (M), lowest effective concentration (LEC) ([1]; S9 −): 6.2e-05 M | SOS UMUC ASSAY (M), LEC ([6]; S9 −): 9e-07 M

ClC(Cl)(Cl)Cl [Carbon tetrachloride]
Maximum Concentration (% v/v), suggested maximum tolerable solvent concentration [3]: 2 % v/v

C[S+](C)[O-] [Dimethylsulfoxide]
Maximum Concentration (% v/v), suggested maximum tolerable solvent concentration [3]: 5 % v/v

CCOS(C)(=O)=O [EMS, Ethyl methanesulfonate]
fluorescence induction by the reporter [2]: increases with increasing concentration

CCO [Ethanol]
Maximum Concentration (% v/v), suggested maximum tolerable solvent concentration [3]: 2 % v/v

OO [HYDROGEN PEROXIDE]
GSA (M), lowest effective concentration (LEC) ([1]; Saccharomyces cerevisiae): 0.002 M | SOS LUX ASSAY (M), LEC [7]: 5.9e-05 M

CO[C@@]12[C@H](COC(N)=O)C3=C(C(=O)C(C)=C(N)C3=O)N1C[C@@H]1N[C@@H]12 [MITOMYCIN C, mitomycin C]
SOS LUX ASSAY (M), LEC [7]: 4.7e-08 M | SOS UMUC ASSAY (M), LEC ([6]; S9 −): 1e-08 M

CO [Methanol]
Maximum Concentration (% v/v), suggested maximum tolerable solvent concentration [3]: 2 % v/v

CCn1cc(C(=O)O)c(=O)c2ccc(C)nc21 [NALIDIXIC ACID]
GSA (M), lowest effective concentration (LEC) ([1]; S9 −): 1.6e-06 M

Cc1cc2nc3ccc(N(C)C)cc3nc2cc1N.Cl [Neutral Red]
GSA genotoxicity result [1]: positive | Ames test result [4]: positive

[N-]=[N+]=[N-] [SODIUM AZIDE]
GSA (M), lowest effective concentration (LEC) ([1]; Saccharomyces cerevisiae): 1e-05 M | SOS UMUC ASSAY (M), LEC [6]: 0.0054 M

C1CCOC1 [Tetrahydrofuran]
Maximum Concentration (% v/v), suggested maximum tolerable solvent concentration [3]: 2 % v/v

Nc1ccccc1 [aniline]
GSA genotoxicity result [1]: negative | cancer data / carcinogenicity [5]: carcinogens | Ames test result [4]: not detectable | Ames test result ([4]; with and without S9): negative

CN/C(=N/CCSCc1nc[nH]c1C)NC#N [cimetidine]
GSA genotoxicity result [1]: positive | corresponding data from other tests [8]: no corresponding positive data

COc1cc2c(c(OC)c1OC)-c1ccc(OC)c(=O)cc1[C@@H](NC(C)=O)CC2 [colchicine]
GSA genotoxicity result [1]: responds

Clc1ccc(COC(Cn2ccnc2)c2ccc(Cl)cc2Cl)cc1 (stereo not shown) [econazole]
GSA genotoxicity result [1]: responds

Cc1c2ccncc2c(C)c2c1[nH]c1ccccc12 [ellipticine]
GSA genotoxicity result [1]: responds

CC[n+]1c(-c2ccccc2)c2cc(N)ccc2c2ccc(N)cc21 [ethidium bromide]
Ames test result [4, 9]: positive

COc1cc([C@@H]2c3cc4c(cc3[C@@H](O[C@@H]3O[C@@H]5CO[C@@H](C)O[C@H]5[C@H](O)[C@H]3O)[C@H]3COC(=O)[C@H]23)OCO4)cc(OC)c1O [etoposide]
GSA genotoxicity result [1]: responds

CN(C)CCN(Cc1cccs1)c1ccccn1 [methapyraline]
GSA genotoxicity result [1]: induced

C[n+]1ccc(-c2cc[n+](C)cc2)cc1 [methyl viologen]
GSA genotoxicity result [1]: induced

CCCCC(CC)COC(=O)c1ccccc1C(=O)OCC(CC)CCCC (stereo not shown) [phthalic acid bis(2-ethylhexyl) ester]
GSA genotoxicity result [1]: induced

C=CCc1ccc2c(c1)OCO2 [safrole]
cancer data / carcinogenicity [5]: carcinogens | Ames test result [4]: not detectable

NC(N)=S [thiourea]
cancer data / carcinogenicity [5]: carcinogens | Ames test result [4]: not detectable

CCOC(N)=O [urethane]
cancer data / carcinogenicity [5]: carcinogens | Ames test result [4]: not detectable

bleomycin
GSA genotoxicity result [1]: induced

phleomycin
GSA genotoxicity result [1]: induced

proflavin hemisulfate
GSA genotoxicity result [1]: positive | Ames test result [4, 9]: positive

tritolyl phosphate
corresponding data from other tests [8]: no corresponding positive data
